From patent US20060069132A1, “Azolecarboxamide herbicides” (priority 2004, published 2006)
Where two headings read alike, the source gives them in different places.

Key:
barnyardgrass = test: Test A pre-/postemergence herbicide test; type: in vivo, Echinochloa crus-galli; settings: for pest or weed control at 500 g/ha / pest or weed control at 2000 g/ha: Echinochloa crus-galli, 240 h
Method in brief: (§1)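 Seeds sown in sandy loam received a preemergence directed soil spray of compound in non-phytotoxic solvent with surfactant; postemergence plants (2–10 cm, one- to two-leaf stage) were sprayed to runoff at the same time. After ~10 days in greenhouse, injury was rated visually versus untreated controls (0 = no effect, 100 = complete control).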

redroot pigweed = test: Test A pre-/postemergence herbicide test; type: in vivo, Amaranthus retroflexus; settings: for pest or weed control at 500 g/ha / pest or weed control at 2000 g/ha: Amaranthus retroflexus, 240 h
Method in brief: as §1

lambsquarters = test: Test B pre-/postemergence herbicide test; type: in vivo, Chenopodium album; settings: for pest or weed control at 125 g/ha / pest or weed control at 500 g/ha: Chenopodium album, 336 h
Method in brief: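 Plants compared with untreated controls 13–15 days post-treatment and given a visual 0–100 injury score. Applications: preemergence to seeds; postemergence at 1- to 4-leaf (2–18 cm); paddy species flooded, 2-leaf stage. Vehicle non-phytotoxic, surfactant included.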

morningglory = test: Test B pre-/postemergence herbicide test; type: in vivo, Ipomoea coccinea; settings: for pest or weed control at 125 g/ha / pest or weed control at 500 g/ha: Ipomoea, 336 h
Method in brief: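 Greenhouse pot assay with simultaneous preemergence (treated seed) and postemergence (2–18 cm seedlings) applications of surfactant-containing, non-phytotoxic solvent formulations. Response scored visually 13–15 days later on a 0–100 scale, 100 meaning complete control.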

[1] = Postemergence, 500 g ai/ha, 0 to 100 scale, 0 no effect, 100 complete control
[2] = Postemergence, 2000 g ai/ha, 0 to 100 scale, 0 no effect, 100 complete control
[3] = Preemergence, 500 g ai/ha, visual rating, 0 to 100 scale (0 no effect, 100 complete control)
[4] = Preemergence, 2000 g ai/ha, 0 to 100 scale, 0 no effect, 100 complete control
[5] = Postemergence, 500 g ai/ha, visual rating after 13 to 15 days, scale 0 (no effect) to 100 (complete control)
[6] = postemergence, 125 g ai/ha, visual rating, scale 0 (no effect) to 100 (complete control)
[7] = preemergence, 125 g ai/ha, 0 to 100 scale, 0 is no effect, 100 is complete control
[8] = Preemergence, 2000 g ai/ha, visual rating, 0 to 100 scale (0 no effect, 100 complete control)
[9] = 500 g ai/ha, visual rating 0-100, 0 no effect, 100 complete control, preemergence
[10] = post-emergence, Postemergence, 500 g ai/ha, 0 to 100 scale, 0 no effect, 100 complete control, read-out: Barnyardgrass plant response rating
[11] = post-emergence, Postemergence, 2000 g ai/ha, 0 to 100 scale, 0 no effect, 100 complete control, read-out: Plant response rating, Barnyardgrass
[12] = pre-emergence, Preemergence, 500 g ai/ha, visual rating, 0 to 100 scale (0 no effect, 100 complete control), read-out: Barnyardgrass plant response rating
[13] = pre-emergence, Preemergence, 2000 g ai/ha, visual rating, 0 to 100 scale (0 no effect, 100 complete control), read-out: Barnyardgrass plant response rating
[14] = post-emergence, Postemergence, 500 g ai/ha, 0 to 100 scale, 0 no effect, 100 complete control, read-out: Pigweed plant response rating
[15] = post-emergence, Postemergence, 2000 g ai/ha, 0 to 100 scale, 0 no effect, 100 complete control, read-out: Plant response rating, Pigweed
[16] = pre-emergence, Preemergence, 2000 g ai/ha, visual rating, 0 to 100 scale (0 no effect, 100 complete control), read-out: Pigweed plant response rating
[17] = pre-emergence, preemergence, 500 g ai/ha, visual injury, 0 to 100 scale (0 no effect, 100 complete control), read-out: Pigweed plant response rating
[18] = post-emergence, postemergence, 125 g ai/ha, visual rating, scale 0 (no effect) to 100 (complete control), read-out: Lambsquarters plant response rating
[19] = post-emergence, postemergence, 500 g ai/ha, visual rating, scale 0 (no effect) to 100 (complete control), read-out: Lambsquarters plant response rating
[20] = pre-emergence, 500 g ai/ha, visual rating 0-100, 0 no effect, 100 complete control, read-out: Plant response rating, Lambsquarters
[21] = pre-emergence, preemergence, 125 g ai/ha, 0 to 100 scale, 0 is no effect, 100 is complete control, read-out: Plant response rating, Lambsquarters
[22] = post-emergence, postemergence, 125 g ai/ha, visual rating, scale 0 (no effect) to 100 (complete control), read-out: Morningglory plant response rating
[23] = post-emergence, postemergence, 500 g ai/ha, visual rating, scale 0 (no effect) to 100 (complete control), read-out: Morningglory plant response rating
[24] = pre-emergence, 500 g ai/ha, visual rating 0-100, 0 no effect, 100 complete control, read-out: Plant response rating, Morningglory
[25] = pre-emergence, preemergence, 125 g ai/ha, 0 to 100 scale, 0 is no effect, 100 is complete control, read-out: Plant response rating, Morningglory
[26] = preemergence, 500 g ai/ha, visual injury, 0 to 100 scale (0 no effect, 100 complete control)
[27] = 125 g ai/ha, 0 = no effect, 100 = complete control, preemergence
[28] = 500 g ai/ha, visual rating, 0 = no effect, 100 = complete control, preemergence
[29] = postemergence, 500 g ai/ha, scale 0 to 100, 0 is no effect, 100 is complete control

CCOC(=O)c1cccc(NC(=O)c2cc(C(C)(C)C)nn2CCF)c1 [Compound 79]
Plant response rating, Barnyardgrass (barnyardgrass; [1]): 40
Plant response rating, Barnyardgrass (barnyardgrass; [2]): 40
Barnyardgrass plant response rating (barnyardgrass; [3]): 20
Barnyardgrass plant response rating (barnyardgrass; [4]): 35
Plant response rating, Pigweed (redroot pigweed; [1]): 95
Plant response rating, Pigweed (redroot pigweed; [2]): 85
Pigweed plant response rating (redroot pigweed; [3]): 45
Pigweed plant response rating (redroot pigweed; [4]): 90
Plant response rating, Lambsquarters (lambsquarters; [5]): 80
Lambsquarters plant response rating (lambsquarters; [6]): 70
Plant response rating, Lambsquarters (lambsquarters; [7]): 0
Plant response rating, Morningglory (morningglory; [7]): 0

C=CCn1nc(C(C)(C)C)cc1C(=O)Nc1cccc(C(C)=NO)c1 [Compound 117]
Barnyardgrass plant response rating (barnyardgrass; [1]): 45
Plant response rating, Barnyardgrass (barnyardgrass; [2]): 75
Barnyardgrass plant response rating (barnyardgrass; [3]): 30
Barnyardgrass plant response rating (barnyardgrass; [8]): 70
Pigweed plant response rating (redroot pigweed; [1]): 80
Plant response rating, Pigweed (redroot pigweed; [2]): 95
Pigweed plant response rating (redroot pigweed; [3]): 55
Pigweed plant response rating (redroot pigweed; [8]): 90
Plant response rating, Lambsquarters (lambsquarters; [9]): 100
Plant response rating, Lambsquarters (lambsquarters; [5]): 90
Lambsquarters plant response rating (lambsquarters; [6]): 60
Plant response rating, Lambsquarters (lambsquarters; [7]): 90
Plant response rating, Morningglory (morningglory; [9]): 60

CCn1nc(C(C)(C)C)cc1C(=O)Nc1cccc(C(=O)OC)n1 [Compound 143, methyl 6-[[[3-(1,1-dimethylethyl)-1-ethyl-1H-pyrazol-5-yl]carbonyl]amino]-2-pyridinecarboxylate]
pest or weed control at 500 g/ha (barnyardgrass; [10]): 10%
pest or weed control at 2000 g/ha (barnyardgrass; [11]): 25%
pest or weed control at 500 g/ha (barnyardgrass; [12]): 0%
pest or weed control at 2000 g/ha (barnyardgrass; [13]): 0%
pest or weed control at 500 g/ha (redroot pigweed; [14]): 20%
pest or weed control at 2000 g/ha (redroot pigweed; [15]): 35%
pest or weed control at 2000 g/ha (redroot pigweed; [16]): 0%
pest or weed control at 500 g/ha (redroot pigweed; [17]): 0%
pest or weed control at 125 g/ha (lambsquarters; [18]): 0%
pest or weed control at 500 g/ha (lambsquarters; [19]): 20%
pest or weed control at 500 g/ha (lambsquarters; [20]): 0%
pest or weed control at 125 g/ha (lambsquarters; [21]): 0%
pest or weed control at 125 g/ha (morningglory; [22]): 0%
pest or weed control at 500 g/ha (morningglory; [23]): 0%
pest or weed control at 500 g/ha (morningglory; [24]): 0%
pest or weed control at 125 g/ha (morningglory; [25]): 0%

CCn1nc(C(C)(C)C)cc1C(=O)Nc1cc(C(=O)OC)ccn1 [Compound 151, methyl 2-[[[3-(1,1-dimethylethyl)-1-ethyl-1H-pyrazol-5-yl]carbonyl]amino]-4-pyridinecarboxylate]
pest or weed control at 500 g/ha (barnyardgrass; [10]): 10%
pest or weed control at 2000 g/ha (barnyardgrass; [11]): 10%
pest or weed control at 500 g/ha (barnyardgrass; [12]): 0%
pest or weed control at 2000 g/ha (barnyardgrass; [13]): 0%
pest or weed control at 500 g/ha (redroot pigweed; [14]): 35%
pest or weed control at 2000 g/ha (redroot pigweed; [15]): 70%
pest or weed control at 2000 g/ha (redroot pigweed; [16]): 0%
pest or weed control at 500 g/ha (redroot pigweed; [17]): 0%
pest or weed control at 125 g/ha (lambsquarters; [18]): 0%
pest or weed control at 500 g/ha (lambsquarters; [19]): 50%
pest or weed control at 500 g/ha (lambsquarters; [20]): 0%
pest or weed control at 125 g/ha (lambsquarters; [21]): 0%
pest or weed control at 125 g/ha (morningglory; [22]): 10%
pest or weed control at 500 g/ha (morningglory; [23]): 30%
pest or weed control at 500 g/ha (morningglory; [24]): 0%
pest or weed control at 125 g/ha (morningglory; [25]): 0%

CCOC(=O)c1ccc(F)c(NC(=O)C2CC(C(C)(C)C)=NN2CC)c1 (centres unmarked) [Compound 267, ethyl 3-[[[3-(1,1-dimethylethyl)-1-ethyl-4,5-dihydro-1H-pyrazol-5-yl]carbonyl]amino]-4-fluorobenzoate]
pest or weed control at 500 g/ha (barnyardgrass; [10]): 40%
pest or weed control at 2000 g/ha (barnyardgrass; [11]): 65%
pest or weed control at 2000 g/ha (barnyardgrass; [13]): 80%
pest or weed control at 500 g/ha (barnyardgrass; pre-emergence, preemergence, 500 g ai/ha, visual injury, 0 to 100 scale (0 no effect, 100 complete control), read-out: Barnyardgrass plant response rating): 70%
pest or weed control at 500 g/ha (redroot pigweed; [14]): 40%
pest or weed control at 2000 g/ha (redroot pigweed; [15]): 60%
pest or weed control at 2000 g/ha (redroot pigweed; [16]): 80%
pest or weed control at 500 g/ha (redroot pigweed; [17]): 5%
pest or weed control at 125 g/ha (lambsquarters; [18]): 30%
pest or weed control at 500 g/ha (lambsquarters; post-emergence, postemergence, 500 g ai/ha, scale 0 to 100, 0 is no effect, 100 is complete control, read-out: Lambsquarters plant response rating): 50%
pest or weed control at 125 g/ha (lambsquarters; pre-emergence, 125 g ai/ha, 0 = no effect, 100 = complete control, read-out: Lambsquarters plant response rating (0 to 100 scale)): 0%
pest or weed control at 125 g/ha (morningglory; [22]): 30%
pest or weed control at 500 g/ha (morningglory; post-emergence, postemergence, 500 g ai/ha, scale 0 to 100, 0 is no effect, 100 is complete control, read-out: Morningglory plant response rating): 40%
pest or weed control at 125 g/ha (morningglory; pre-emergence, 125 g ai/ha, 0 = no effect, 100 = complete control, read-out: Morningglory plant response rating (0 to 100 scale)): 20%
pest or weed control at 500 g/ha (morningglory; pre-emergence, 500 g ai/ha, visual rating, 0 = no effect, 100 = complete control, read-out: Plant response rating, Morningglory): 30%

CCn1nc(C(C)(C)C)cc1C(=O)Nc1cccc(OC(C)C)c1 [Compound 273]
Barnyardgrass plant response rating (barnyardgrass; [1]): 55
Plant response rating, Barnyardgrass (barnyardgrass; [2]): 75
Barnyardgrass plant response rating (barnyardgrass; [8]): 95
Barnyardgrass plant response rating (barnyardgrass; [26]): 70
Pigweed plant response rating (redroot pigweed; [1]): 100
Plant response rating, Pigweed (redroot pigweed; [2]): 100
Pigweed plant response rating (redroot pigweed; [8]): 100
Pigweed plant response rating (redroot pigweed; [26]): 100
Lambsquarters plant response rating (0 to 100 scale) (lambsquarters; [27]): 70
Plant response rating, Lambsquarters (lambsquarters; [28]): 100
Lambsquarters plant response rating (lambsquarters; [6]): 60
Lambsquarters plant response rating (lambsquarters; [29]): 90
Morningglory plant response rating (0 to 100 scale) (morningglory; [27]): 0
Plant response rating, Morningglory (morningglory; [28]): 10
Morningglory plant response rating (morningglory; [6]): 20
Morningglory plant response rating (morningglory; [29]): 70

CCn1nc(C(C)(C)C)cc1C(=O)Nc1cccc(C(=O)N2CC=CC2)c1 [Compound 286]
Barnyardgrass plant response rating (barnyardgrass; [1]): 60
Plant response rating, Barnyardgrass (barnyardgrass; [2]): 80
Barnyardgrass plant response rating (barnyardgrass; [8]): 85
Barnyardgrass plant response rating (barnyardgrass; [26]): 75
Pigweed plant response rating (redroot pigweed; [1]): 55
Plant response rating, Pigweed (redroot pigweed; [2]): 85
Pigweed plant response rating (redroot pigweed; [8]): 95
Pigweed plant response rating (redroot pigweed; [26]): 85
Lambsquarters plant response rating (0 to 100 scale) (lambsquarters; [27]): 100
Plant response rating, Lambsquarters (lambsquarters; [28]): 100
Lambsquarters plant response rating (lambsquarters; [6]): 10
Lambsquarters plant response rating (lambsquarters; [29]): 70
Morningglory plant response rating (0 to 100 scale) (morningglory; [27]): 0
Plant response rating, Morningglory (morningglory; [28]): 0
Morningglory plant response rating (morningglory; [6]): 0
Morningglory plant response rating (morningglory; [29]): 0
